Data on 9 molecules can be found in US20030027981A1, “Urokinase-type plasminogen activator receptor” (priority 1989, published 2003).

For test [1], the system named is u-PAR mRNA. Kind of test: Northern blot of u-PAR mRNA in RD cells. Particulars: 48 hours, PMA 150 nM, mEGF 20 ng/ml, TGF-β1 7.5 ng/ml, dexamethasone 10^−6 M. The class given is cell-based, human. The procedure: (§1) The cells were seeded at 0.5×10^6/ml in DMEM and grown to confluence, washed in PBS^+ and kept under serum-free conditions for 48 hours followed by no additions (1, 6), by addition of Dex (10^−6M) (2, 7) PMA (150 nM) (3, 8) mEGF (20 ng/ml) (4, 9) and TGF-β1, (7.5 ng/ml) (5, 10) for 48 hours. After incubation, both the adherent and the non-adherent cells were collected, pooled, and total RNA was isolated as described in Materials and Methods. For the Northern blot analyses, 30 μg of total RNA were electrophoresed in 1.5% agarose gels under denaturing conditions and blotted onto a nitrocellulose filter. The filters were hybridized to a random primed labeled u-PAR cDNA probe. The positions of the ribosomal RNA in the Northern are indicated to the left.
(§2) The human histiocytic lymphoma cell line U937 (American Type Culture Collection (ATCC), CRL 1593) was obtained from Dr. A. Fattorssi (Research Lab. of Aeronautica Militare, Rome, Italy) and cultured in RPMI 1640 medium with 10% heat inactivated fetal calf serum and 2 mM L-glutamine at a density of 0.5×10^6 cells/ml at the onset of the experiment. The medium was supplemented with 100 units/ml of penicillin and 25 ug/ml streptomycin. The human rhabdomyosarcoma (RD) and adenocarcinoma (A549) cell lines (ATCC CCL 136 and ATCC CCl 185, respectively) were obtained from Flow laboratories, Irvine, U.K., and kept in Dulbecco's modified Eagle's medium supplemented with 10% fetal calf serum until confluency, as described earlier (Lund et al., 1988). The cell lines were tested for and found free from Mycoplasma infection. PMA and the other compounds were present during different time periods and in varying concentrations, as indicated for each experiment. The adherent cells were released by a rubber policeman, and harvested for RNA analysis as described (Mayer et al., 1988).
(§3) Total cellular RNA was isolated from the cells as described by Chomczynsky and Sacchi (1987). The RNA was analyzed by hybridizing Northern blots as described (Lund et al., 1987), except that random primed labelled plasmid probes were used. […]

Test [2] deals with u-PAR mRNA. As to the kind of experiment: Northern blot of u-PAR mRNA in A549 cells. To be noted: 48 hours, PMA 150 nM, mEGF 20 ng/ml, TGF-β1 7.5 ng/ml, dexamethasone 10^−6 M. The class given is cell-based, human. The procedure:
as §1, §2, §3

The subject of test [3] is u-PAR mRNA. Kind of test: Northern blot of u-PAR mRNA in U937 cells. The class given is cell-based, human. Particulars: 150 nM PMA, time course. The procedure: The cells were seeded at 0.5×10^6/ml in RPMI 1640 medium containing 10% FCS, and incubated with 150 nM PMA for the indicated number of hours. After the incubation both the adherent and the non-adherent cells were collected, pooled, and total RNA was isolated as described in Materials and Methods. For the Northern blot analyses, 30 μg of total RNA were electrophoresed in 1.5% agarose gels under denaturing conditions and blotted onto a nitrocellulose filter. The filters were hybridized to a random primed labelled u-PAR cDNA probe (A), or a β-actin cDNA probe (B). The positions of the ribosomal RNA in the Northern blot are indicated to the left.
The human histiocytic lymphoma cell line U937 (American Type Culture Collection (ATCC), CRL 1593) was obtained from Dr. A. Fattorssi (Research Lab. of Aeronautica Militare, Rome, Italy) and cultured in RPMI 1640 medium with 10% heat inactivated fetal calf serum and 2 mM L-glutamine at a density of 0.5×10^6 cells/ml at the onset of the experiment. The medium was supplemented with 100 units/ml of penicillin and 25 ug/ml streptomycin. […]
as §3

Test [4] deals with u-PAR. Kind of test: u-PAR protein level in U937 cells by cross-linking of detergent phase to 125I-ATF. The class given is cell-based, human. Particulars: increasing time of treatment, PMA 150 nM, dibuturyl cAMP 1 mM.
In test [5] the test system is U937 cells. Kind of test: Fate of receptor-bound ligands on U937 cells (internalization and degradation). The class given is cell-based, human.
The target of test [6] is uPAR-bound u-PA (Homo sapiens, UniProt P00749). Format: cell-based. To be noted: peptide 0.5 mg/ml 30 minutes preincubation; PAI-1 0.9 or 4.5 nM. The procedure:
U937 cells were grown in suspension in RPMI 1640 medium supplemented with 5% heat-inactivated fetal calf serum. PMA-stimulation of U937 cells was performed at a cell density of […] cells/ml with 150 nM PMA for 4 days. The adherent cell population was harvested with a rubber scraper and resuspended in PBS. […] The effect of PAI's on the activity of cell-bound u-PA was determined by the addition of varying concentrations of PAI-1 (0.18-18.4 nM) or PAI-2 (1.13-56.7 nM) to the incubations at the same time as the addition of plasminogen. Curves were then constructed of plasmin concentration against time. […] [pln]∞ was calculated from the relationship: [[…]]0) equation.2 where Δ[pln]0 is the initial rate of plasmin generation which was determined in control incubations in the absence of inhibitors. […] Association rate constants (second-order rate constants) were calculated from the slope of the line of double reciprocal plots of kapp against inhibitor concentration.

Test [7] concerns the target T1, u-PAR (Homo sapiens, UniProt Q03405). Kind of test: Release of 125I-labelled DFP-u-PA from PMA-stimulated U937 cells by phospholipases. The class given is cell-based. To be noted: phospholipases >5 μg/ml, compared to blind sample.
Test [8] concerns the target T1, u-PAR. Kind of test: Chemical cross-linking of 125I-ATF to purified u-PAR. Format: binding. To be noted: unlabelled reagent 100 nM, u-PAR approx. 1 nM, 125I-ATF approx. 1 nM. The procedure: B) Affinity column eluate was diluted to yield an approximate concentration of u-PAR of 1 nM during the assay. The samples were preincubated alone (lane 2) or in the presence of the following unlabelled reagents at a concentration of 100 nM: bovine serum albumin (lane 3), t-PA (lane 4), plasminogen (lane 5), murine epidermal growth factor (lane 6), ATF (lane 7), active 54 kD u-PA (lane 8), DFP-inactivated 54 kD u-PA (lane 9). After preincubation for 15 min at room temperature, ^125I-labelled ATF (approximately 1 nM) was added, followed by incubation for 1 hour at 4° C. After incubation, chemical cross-linking was performed with DSS, after which the samples were analyzed by SDS-PACE on a 6-16% gradient gel under non-reducing conditions and autoradiography. […] Electrophoretic mobilities of molecular weight standard proteins are inducated (kD).
Cross-linking of u-PAR in complex mixtures or purified fractions to ^125I-labelled ATF was performed as described for solubilized receptor (Nielsen et al., 1988), except that 2 mM disuccinimidylsuberate (DSS) was used for cross-linking. Cross-linking of purified u-PAR to DFP-treated u-PA for analysis by SDS-PAGE and silver-staining was performed in the same manner, except that non-labelled DFP-treated u-PA was used as the ligand.

Test [9] relates to cultured cells. To be noted: plasmin, some cell types (Burtin and Fondaneche, 1988); cited from earlier work.
The test system of test [10] is HT-1080 cells. As to the kind of experiment: Plasmin release from plasmin-loaded HT-1080 cells. The class given is cell-based, human. The procedure: FIG. 24. Plasmin release from HT-1080 cells into serum-free and serum-containing media. Confluent layers of HT-1080 cells were first loaded with plasmin by incubation for 1 hour at 37° C. in serum-free MEM medium (0.5 ml) containing human plasmin (0-5 μg/ml). After rinsing the cell layers three times, they were incubated for 2 hours at 37° C. with either serum-free medium (∘ - - - ∘), medium containing 10% heat-inactivated and plasminogen-depleted fetal calf serum (● - - - ●), or the latter with tranexamic acid (100 μM) (▪ - - - ▪). Plasmin was then assayed in the cell-bound fraction (A) and the media (B). At the time of transfer to new media, there was approximately 28 ng of plasmin bound to the cells from the pretreatment with 2.5 μg of plasmin/well.
In the Examples concerning plasmin binding to cells from medium, human plasmin (approximately 18 CU/mg; Kabi Diagnostica, Stockholm, Sweden) was added to the cultures at final concentrations of 0-5 μg/ml. The cells were incubated for 3 hours at 37° C. before assay of cell-bound and supernatant plasmin (see below). For plasmin release experiments, cells were loaded for 1 hour at 37° C. with 0-5 μg/ml plasmin in serum-free medium, then rinsed three times with MEM.
Plasmin bound to the cell layer was recovered and assayed as follows. After harvest of culture medium, the cells were rinsed three times with PBS (plasmin assays of further rinses were negative); then the bound plasmin was specifically eluted (Miles, L. A., and E. F. Plow, “Binding and activation of plasminogen on the platelet surface”, J. Biol. Chem. 260: 4303-4311, 1985) with a solution of 1 mM tranexamic acid in the same rinsing solution (150 μl/well). Plasmin activity was assayed in eluate samples (50 μl) as above with an incubation time of 3 hours at 37° C. Tranexamic acid at 1 mM had no effect on the thioesterase activity of plasmin in these assays.

Turning to `CCCCCCCCCCCCCC(=O)O[C@@H]1[C@@H](C)[C@@]2(O)[C@@H](C=C(CO)C[C@]3(O)C(=O)C(C)=C[C@@H]23)[C@@H]2C(C)(C)[C@]12OC(C)=O` [PMA, Phorbol 12-myristate 13-acetate], the figures for the “u-PAR mRNA level” value in test [1], in test [2] and in test [3] were “increased”, “increased” and “maximal effect after 24 hours”, respectively. Moreover, the “u-PAR protein level (signal of 125I-ATF cross-linked to u-PAR)” value in test [4] is listed as “increase in the strength of signal”.

For `CCN(CC)CCCC(C)Nc1ccnc2cc(Cl)ccc12` (stereo not shown) [chloroquine], the “Degradation of u-PA:PAI-1 ligand” value in test [5] came out at 20%.

Consider “Gly-Arg-Gly-Asp-Ser (GRGDS; printed: Gly-Arg-Gly-Asp-Ser)”, for which the “Rates of inhibition of cell-bound u-PA by PAI-1 in the presence or absence of the peptide” value in test [6] is given as “the same”.

In the case of “TGF-β1: porcine transforming growth factor β-type 1”, the “u-PAR mRNA level” value in test [1] and in test [2] was “increased” in each case.

On to Trypsin, for which, in test [7], the “Liberation of 125I-labelled DFP-u-PA from the cell surface” value is on record as “efficiently released all cell surface associated radioactivity”.

With “bovine serum albumin: unrelated control protein”, in test [8], the “Competition for binding and cross-linking of 125I-labelled ATF to purified u-PAR” value (“Competition” below) is listed as “no competition”.

With “epidermal growth factor: murine epidermal growth factor”, the “u-PAR mRNA level” value in test [1] and in test [2] was “increased” each time. Besides, the “Competition” value in [8] was “no competition”.

As for t-PA: tissue-type plasminogen activator, the “Competition” value in [8] was “no competition”.

B1: plasmin: human plasmin (Kabi Diagnostica) (protein, UniProt P00747 20-580; P00747 581-810, looked up)
Plasmin heavy chain A: EPLDDYVNTQGASLFSVTKKQLGAGSIEECAAKCEEDEEFTCRAFQYHSKEQQCVIMAENRKSSIIIRMRDVVLFEKKVYLSECKTGNGKNYRGTMSKTKNGITCQKWSSTSPHRPRFSPATHPSEGLEENYCRNPDNDPQGPWCYTTDPEKRYDYCDILECEEECMHCSGENYDGKISKTMSGLECQAWDSQSPHAHGYIPSKFPNKNLKKNYCRNPDRELRPWCFTTDPNKRWELCDIPRCTTPPPSSGPTYQCLKGTGENYRGNVAVTVSGHTCQHWSAQTPHTHNRTPENFPCKNLDENYCRNPDGKRAPWCHTTNSQVRWEYCKIPSCDSSPVSTEQLAPTAPPELTPVVQDCYHGDGQSYRGTSSTTTTGKKCQSWSSMTPHRHQKTPENYPNAGLTMNYCRNPDADKGPWCFTTDPSVRWEYCNLKKCSGTEASVVAPPPVVLLPDVETPSEEDCMFGNGKGYRGKRATTVTGTPCQDWAAQEPHRHSIFTPETNPRAGLEKNYCRNPDGDVGGPWCYTTNPRKLYDYCDVPQCAAPSFDCGKPQVEPKKCPGR
Plasmin light chain B: VVGGCVAHPHSWPWQVSLRTRFGMHFCGGTLISPEWVLTAAHCLEKSPRPSSYKVILGAHQEVNLEPHVQEIEVSRLFLEPTRKDIALLKLSSPAVITDKVIPACLPSPNYVVADRTECFITGWGETQGTFGAGLLKEAQLPVIENKVCNRYEFLNGRVQSTELCAGHLAGGTDSCQGDSGGPLVCFEKDKYILQGVTSWGLGCARPNKPGVYVRVSRFVTWIEGVMRNN
modifications: plasmin
Take B1: the Kd in test [9] was 50 nM. Further, the “Plasmin activity recovered from the cells” value in test [10] (2 hours 37° C., 10% serum-containing medium) was 40%. For the same molecule, the “Plasmin activity remaining bound to cells” value in [10] (2 hours 37° C., fresh serum-free medium) is given as “approximately 40%”. For the same molecule, the “Plasmin activity detected in the medium” value in test [10] (serum-containing medium) is recorded as “about 11%”; in test [10] (serum-free medium), 60%.
